Experimental data from patent US20160318897A1, “AZOLE COMPOUNDS CARRYING AN IMINE-DERIVED SUBSTITUENT” (BASF SE, priority 2013, published 2016).

Key:
Format in all cases: in vivo
Dichromothrips corbetti = assay: Orchid thrips (Dichromothrips corbetti) floral-immersion test; conditions: adult thrips, 72 hours after treatment, read-out: mortality in comparison with untreated controls
Protocol: B.2 Orchid Thrips (Dichromothrips Corbetti)
Dichromothrips corbetti adults used for bioassay were obtained from a colony maintained continuously under laboratory conditions. For testing purposes, the test compound is diluted in a 1:1 mixture of acetone:water (vol:vol), plus Kinetic HV at a rate of 0.01% v/v.
Thrips potency of each compound was evaluated by using a floral-immersion technique. All petals of individual, intact orchid flowers were dipped into treatment solution and allowed to dry in Petri dishes. Treated petals were placed into individual resealable plastic along with about 20 adult thrips. All test arenas were held under continuous light and a temperature of about 28° C. for duration of the assay. After 3 days, the numbers of live thrips were counted on each petal. The percent mortality was recorded 72 hours after treatment.

Plutella xylostella = assay: Diamond back moth (Plutella xylostella) cabbage leaf dip test; conditions: foliar, 3rd instar larvae, 72 hours after treatment, read-out: mortality in comparison with untreated controls
Protocol: B.8 Diamond Back Moth (Plutella xylostella)
The active compound is dissolved at the desired concentration in a mixture of 1:1 (vol:vol) distilled water:aceteone. Surfactant (Kinetic HV) is added at a rate of 0.01% (vol/vol). The test solution is prepared at the day of use.
Leaves of cabbage were dipped in test solution and air-dried. Treated leaves were placed in petri dishes lined with moist filter paper and inoculated with ten 3rd instar larvae. Mortality was recorded 72 hours after treatment. Feeding damages were also recorded using a scale of 0-100%.

Aphis craccivora = assay: Cowpea aphid (Aphis craccivora) spray test on potted cowpea plants; conditions: after 72 hours, read-out: mortality in comparison with untreated controls
Protocol: B.3 Cowpea Aphid (Aphis Craccivora)
The active compound is dissolved at the desired concentration in a mixture of 1:1 (vol:vol) distilled water:acetone. Surfactant (Kinetic HV) is added at a rate of 0.01% (vol/vol). The test solution is prepared at the day of use.
Potted cowpea plants were colonized with approximately 50-100 aphids of various stages by manually transferring a leaf tissue cut from infested plant 24 hours before application. Plants were sprayed after the pest population has been recorded. Treated plants are maintained on light carts at about 28° C. Percent mortality was assessed after 72 hours.

Ceratitis capitata = assay: Mediterranean fruitfly (Ceratitis capitata) microtiter plate insect diet test; conditions: 120 h, egg and larval mortality after 5 days, read-out: mortality in comparison with untreated controls
Protocol: B.4 Mediterranean Fruitfly (Ceratitis capitata)
For evaluating control of Mediterranean fruitfly (Ceratitis capitata) the test unit consisted of microtiter plates containing an insect diet and 50-80 C. capitata eggs.
(§1) The compounds were formulated using a solution containing 75% v/v water and 25% v/v DMSO. Different concentrations of formulated compounds were sprayed onto the insect diet at 5 μl, using a custom built micro atomizer, at two replications.
(§2) After application, microtiter plates were incubated at about 28±1° C. and about 80±5% relative humidity for 5 days. Egg and larval mortality was then visually assessed.

Anthonomus grandis = assay: Boll weevil (Anthonomus grandis) microtiter plate insect diet test; conditions: 120 h, egg and larval mortality after 5 days, read-out: mortality in comparison with untreated controls
Protocol: B.1 Boll Weevil (Anthonomus grandis)
For evaluating control of boll weevil (Anthonomus grandis) the test unit consisted of 96-well-microtiter plates containing an insect diet and 5-10 A. grandis eggs.
as §1
After application, microtiter plates were incubated at about 25±1° C. and about 75±5% relative humidity for 5 days. Egg and larval mortality was then visually assessed.

Heliothis virescens = assay: Tobacco budworm (Heliothis virescens) microtiter plate insect diet test; conditions: 120 h, egg and larval mortality after 5 days, read-out: mortality in comparison with untreated controls
Protocol: B.5 Tobacco Budworm (Heliothis virescens)
For evaluating control of tobacco budworm (Heliothis virescens) the test unit consisted of 96-well-microtiter plates containing an insect diet and 15-25 H. virescens eggs.
The compounds were formulated using a solution containing 75% v/v water and 25% v/v DMSO. Different concentrations of formulated compounds were sprayed onto the insect diet at 10 μl, using a custom built micro atomizer, at two replications.
as §2

Spodoptera eridania = assay: Southern armyworm (Spodoptera eridania), 2nd instar larvae, foliar spray on lima bean; conditions: 96 h, 4 days after treatment, read-out: mortality in comparison with untreated controls
Protocol: B.9 Southern Armyworm (Spodoptera eridania), 2nd Instar Larvae
The active compounds were formulated by a Tecan liquid handler in 100% cyclohexanone as a 10,000 ppm solution supplied in tubes. The 10,000 ppm solution was serially diluted in 100% cyclohexanone to make interim solutions. These served as stock solutions for which final dilutions were made by the Tecan in 50% acetone:50% water (v/v) into 5 or 10 ml glass vials. A nonionic surfactant (Kinetic®) was included in the solution at a volume of 0.01% (v/v). The vials were then inserted into an automated electrostatic sprayer equipped with an atomizing nozzle for application to plants/insects.
Lima bean plants (variety Sieva) were grown 2 plants to a pot and selected for treatment at the 1st true leaf stage. Test solutions were sprayed onto the foliage by an automated electrostatic plant sprayer equipped with an atomizing spray nozzle. The plants were dried in the sprayer fume hood and then removed from the sprayer. Each pot was placed into perforated plastic bags with a zip closure. About 10 to 11 armyworm larvae were placed into the bag and the bags zipped closed. […] Mortality and reduced feeding were assessed 4 days after treatment, compared to untreated control plants.

Nephotettix virescens = assay: Rice green leafhopper (Nephotettix virescens) spray test on rice seedlings; conditions: adults, after 72 hours, read-out: mortality in comparison with untreated controls
Protocol: B.7 Rice Green Leafhopper (Nephotettix virescens)
Rice seedlings were cleaned and washed 24 hours before spraying. The active compounds were formulated in 1:1 acetone:water (vol:vol), and 0.01% vol/vol surfactant (Kinetic HV) was added. Potted rice seedlings were sprayed with 5-6 ml test solution, air dried, covered with Mylar cages cages and inoculated with 10 adults. Treated rice plants were kept at about 28-29° C. and relative humidity of about 50-60%. Percent mortality was recorded after 72 hours.

Myzus persicae = assay: Green peach aphid (Myzus persicae) systemic test, artificial diet under membrane; conditions: 72 h, adult aphids, after 3 days, read-out: mortality in comparison with untreated controls
Description: B.6 Green Peach Aphid (Myzus persicae)
For evaluating control of green peach aphid (Myzus persicae) through systemic means the test unit consisted of 96-well-microtiter plates containing liquid artificial diet under an artificial membrane.
The compounds were formulated using a solution containing 75% v/v water and 25% v/v DMSO. Different concentrations of formulated compounds were pipetted into the aphid diet, using a custom built pipetter, at two replications.
After application, 5-8 adult aphids were placed on the artificial membrane inside the microtiter plate wells. The aphids were then allowed to suck on the treated aphid diet and incubated at about 23±1° C. and about 50±5% relative humidity for 3 days. Aphid mortality and fecundity was then visually assessed.

N#CC1CCN(Cc2cn(-c3ccc(Cl)c(Cl)c3)nc2C=NOCC(F)(F)F)CC1 (mixture of isomers) [IA-2, 1-[[1-(3,4-dichlorophenyl)-3-[(E/Z)-2,2,2-trifluoroethoxyiminomethyl]pyrazol-4-yl]methyl]piperidine-4-carbonitrile]
> 75%: mortality at 500 ppm (Dichromothrips corbetti) | mortality at 500 ppm (Plutella xylostella) | mortality at 500 ppm (Aphis craccivora) | mortality at 2500 ppm (Ceratitis capitata) | mortality at 2500 ppm (Anthonomus grandis) | mortality at 2500 ppm (Heliothis virescens) | mortality at 300 ppm (Spodoptera eridania) | mortality at 500 ppm (Nephotettix virescens)

CON=Cc1nn(-c2ccc(Cl)c(Cl)c2)cc1CN1CCC(C#N)CC1 (mixture of isomers) [IA-1, 1-[[1-(3,4-dichlorophenyl)-3-[(E/Z)-methoxyiminomethyl]pyrazol-4-yl]methyl]piperidine-4-carbonitrile]
> 75%: mortality at 500 ppm (Dichromothrips corbetti) | mortality at 500 ppm (Plutella xylostella) | mortality at 2500 ppm (Myzus persicae) | mortality at 500 ppm (Aphis craccivora) | mortality at 2500 ppm (Ceratitis capitata) | mortality at 2500 ppm (Anthonomus grandis) | mortality at 2500 ppm (Heliothis virescens) | mortality at 300 ppm (Spodoptera eridania) | mortality at 500 ppm (Nephotettix virescens)
